# Experimental data taken from patent US20200281949A1, “METHODS FOR TREATING CASTRATION-RESISTANT AND CASTRATION-SENSITIVE PROSTATE CANCER” (TOLERO PHARMACEUTICALS, INC., priority 2018, published 2020).
# Experiments:
# [1] = Phase I dose-escalation study in patients with advanced solid tumors: plasma PK; type: in vivo, human; settings: any timepoint
# Procedure: Plasma PK parameters of compound of structure (I) and alvocidib were evaluated in Cohorts 1-5 at specific timepoints during the study. Blood was collected from patients in Cohorts 1-5 according to the pharmacokinetic sampling schedule described in Table 9.
# PK parameters were estimated using standard noncompartmental methods. Actual sample collection times were used rather than scheduled collection times. Plasma concentrations below the limit of quantification were treated as 0. Imbedded missing plasma concentrations (e.g., missing values between two observed values) were estimated using linear […]. This is consistent with using the trapezoidal rule to calculate AUC. Other missing plasma concentrations were excluded from calculations to estimate PK parameters.
# [2] = test system: subcutaneous 22Rv1 human prostate cancer xenograft; experiment: Efficacy study in the 22Rv1 xenograft prostate cancer model; type: in vivo, male BALB/c nude mice; settings: castrated mice, 21 days; doses per Table 1: Cmpd Str (I) 1.25 mg/kg p.o. BID or 10 mg/kg p.o. Q7D; enzalutamide 30 mg/kg p.o. QD; docetaxel 10 mg/kg i.p. Q7D; ABT199 100 mg/kg p.o. QD
# Procedure: The objective of this study was to evaluate the in vivo therapeutic efficacy of the compound of structure (I) or a pharmaceutically acceptable salt or zwitterionic form thereof in the treatment of a subcutaneous 22Rv1 human prostate cancer xenograft model. For the 22Rv1 model, efficacy of the compound of structure (I) was evaluated in male BALB/c nude mice. Cobalt-60 irradiation of all mice was performed 2 days before the tumor inoculation at 2 Gy (1 Gy=100 rads). Each mouse was inoculated at the right flank with 1×10^7 tumor cells in 0.1 ml of PBS mixed with matrigel (1:1). The date of tumor cell inoculation was denoted as day 0.
# Castration was performed when mean tumor volume reached approximately 200 mm^3. Mice were anesthetized with ketamine/xylazine; surgical castration was performed via a midline scrotal incision allowing bilateral access to the hemiscrotal contents; after exposing each testicle, a 6-0 Vicryl suture was used to ligate the spermatic cord and then remove the testicle; the scrota and skin was then closed with 6-0 Vicryl suture, separately. Treatments started when the mean tumor volume re-grew to approximately 100 mm^3.
# After tumors reached the appropriate size, approximately 100-200 mm^3, mice were randomized into treatment groups 1-11, which are shown in Table 1. Each treatment was administered starting on day 15, at a dosing volume of 5 μL/g and continued for 21 days (or 22 days for groups with treatment at Q7D). For groups with treatment at Q7D×3 weeks, dosing was performed on days 1, 8, and 15 post-randomization, and the study was terminated on day 22 post randomization. The combined treatment intervals were each 0 h, and the interval for BID was 8 h. Randomization was performed based on the “Matched distribution” method (StudyDirector™ software, version 3.1.399.19) randomized block design.
# Tumor volumes were measured twice per week after randomization in two dimensions using a caliper, and the volume was expressed in mm^3 using the formula: “V=(L×W×W)/2,” where V is tumor volume, L is tumor length (the longest tumor dimension) and W is tumor width (the longest tumor dimension perpendicular to L). The average tumor volume for each group, as a percentage of the average tumor volume of the control group (group 1), is shown in FIG. 6. […] The percentage shown in FIG. 7 (% T/C) is calculated as mean(T)/mean(C)*100%, with “T” representing tumor volume and “C” representing tumor volume for group 1.
# T and C are the mean tumor volume (or weight) of the treated groups and control group (group 1), respectively, on a given day. The percentages shown in FIG. 10 are calculated as % ΔT/C=(mean(T)−mean(T0))/(mean(C)−mean(C0))*100%, with “0” indicating the initial timepoint.
# [3] = Phase I dose-escalation study in patients with advanced solid tumors: safety; type: in vivo, human
# Description: Patients with advanced metastatic or progressive solid tumors who were refractory to, or intolerant of, established therapy known to provide clinical benefit for their condition were enrolled. Cohorts of 3-6 patients each received escalating doses of compound of structure (I) using a modified Fibonacci dose escalation approach. Once the optimal dose has been established, additional patients may be enrolled to confirm safety and to explore efficacy. Twenty additional patients will be enrolled in an expansion cohort at the maximum tolerated dose (MTD).
# This is an ongoing Phase 1, open-label, dose-escalation, safety, PK and PD study. The proposed starting dose and schedule for oral compound of structure (I) was a 1-mg flat dose once daily (QD) for 14 days followed by a 7-day drug-free recovery period (each cycle=21 days). In the absence of dose-limiting toxicities (DLTs) in the first cohort of at least 3 patients, the dose was increased using a modified Fibonacci dose escalation scheme, and BID dosing commenced according to the dose escalation schedule described in Table 8. The first patient in cohort 6 has been enrolled at 8 mg compound of structure (I) BID. The baseline demographics of the first 14 patients enrolled in the study are described in Table 6.
# DLT was defined as any one of the following events observed in cycle 1, regardless of investigator attribution, unless there was a clear alternative explanation: • 1. Grade 3 or greater febrile neutropenia • 2. Grade 4 neutropenia for ≥7 consecutive days • 3. Grade 4 thrombocytopenia or Grade 3 thrombocytopenia with clinically significant bleeding or that requires a platelet transfusion • 4. Grade 3 or 4 nonhematologic AEs will be considered dose limiting, regardless of duration aside from the specific parameters described herein • 5. Grade 4 nausea, vomiting, or diarrhea, regardless of duration • 6. Dosing delays≥1 week due to treatment-emergent adverse events (TEAEs) or related severe laboratory test values • 7. Any AST and ALT elevation>3× ULN (if baseline value was normal) or ≥3× the baseline value (if baseline value was abnormal) accompanied by serum bilirubin levels>2×ULN • 8. […] Any Grade≥3 elevations in creatinine • 10. Any Grade 5 toxicity
# [4] = test system: PC-3 prostate tumor xenograft; experiment: Tumor growth in PC-3 mouse xenograft model; type: in vivo; settings: oral gavage 1.25 mg/kg BID x 21 days, or 7.5 or 15 mg/kg q7d x 3
# Procedure: The effects of the compound of structure (I) on tumor growth in the PC-3 mouse xenograft model were also assessed. PC-3 prostate tumor cells were maintained in vitro as a monolayer culture in Ham's F12K medium supplemented with 10% fetal bovine serum at 37° C. in an atmosphere of 5% CO2 in air. The cells in an exponential growth phase were harvested and counted for tumor inoculation. Each mouse was inoculated subcutaneously at the right flank region with PC-3 prostate tumor cells (5×10^6 cells) in 0.1 ml of PBS for tumor development. When the mean tumor size reached approximately 100 mm^3, the mice were randomized and divided into study groups. Compound of structure (I) was administered at 1.25 mg/kg twice daily (BID) for 21 days, or 7.5 mg/kg or 15 mg/kg once weekly (q7d×3) by oral gavage. Tumor volumes were measured twice weekly in two dimensions using a caliper, and the volume expressed in mm^3 using the formula: V=(L×W×W)/2, where V is tumor volume, L is tumor length (the longest tumor dimension) and W is tumor width (the longest tumor dimension perpendicular to L).
# [5] = patients, oral, Cohorts 1-5 (1 mg QD to 6 mg BID), to date
compound,measurement,setting,value
CN1CC[C@H](c2c(OP(=O)(O)O)cc(O)c3c(=O)cc(-c4ccccc4Cl)oc23)[C@H](O)C1 [compound of structure (I)],detection of compound of structure (I) in plasma,"[1]; Cohort 2, 1 mg BID oral, any sample",no compound of structure (I) was detected
same,detectable compound of structure (I) in plasma,"[1]; across cohorts (FIGS. 24G, 24H), oral Formulation No. 401-01",no detectable compound of structure (I)
same,anti-cancer activity in the 22Rv1 xenograft model (tumor growth),[2],modest activity
same,"Treatment-emergent adverse events, Grade 3: Anemia","[3]; number of patients (%), N = 14",1 (7%)
same,"Treatment-emergent adverse events, Grade 3: Chest Pain","[3]; number of patients (%), N = 14",1 (7%)
same,"Treatment-emergent adverse events, Grade 3: Haematuria","[3]; number of patients (%), N = 14",1 (7%)
same,"Treatment-emergent adverse events, Grade 3: Hypotension","[3]; number of patients (%), N = 14",1 (7%)
same,"Treatment-emergent adverse events, Grade 3: Hypoxia","[3]; number of patients (%), N = 14",1 (7%)
same,"Treatment-emergent adverse events, Grade 3: Malignant Pleural Effusion","[3]; number of patients (%), N = 14",1 (7%)
same,"Treatment-emergent adverse events, Grade 3: Pain","[3]; number of patients (%), N = 14",1 (7%)
same,"Treatment-emergent adverse events, Grade 3: Swelling","[3]; number of patients (%), N = 14",1 (7%)
same,dose-limiting diarrhea or neutropenia,[3]; [5],no evidence of dose-limiting diarrhea or neutropenia
same,unexplained toxicity,[3]; [5],no unexplained toxicity
same,tumor growth in PC-3 mouse xenograft model,[4],inhibited tumor growth
